Assay results: patent US11524966B1 (Valo Early Discovery, Inc., priority 2017, dated 2022)

Target: T1, USP25 (USP25-His6, Boston Biochem E-546) (Homo sapiens, UniProt Q9UHP3)
T1 construct: His6; purchased Boston Biochem E-546
T1 sequence (Q9UHP3 1-1055): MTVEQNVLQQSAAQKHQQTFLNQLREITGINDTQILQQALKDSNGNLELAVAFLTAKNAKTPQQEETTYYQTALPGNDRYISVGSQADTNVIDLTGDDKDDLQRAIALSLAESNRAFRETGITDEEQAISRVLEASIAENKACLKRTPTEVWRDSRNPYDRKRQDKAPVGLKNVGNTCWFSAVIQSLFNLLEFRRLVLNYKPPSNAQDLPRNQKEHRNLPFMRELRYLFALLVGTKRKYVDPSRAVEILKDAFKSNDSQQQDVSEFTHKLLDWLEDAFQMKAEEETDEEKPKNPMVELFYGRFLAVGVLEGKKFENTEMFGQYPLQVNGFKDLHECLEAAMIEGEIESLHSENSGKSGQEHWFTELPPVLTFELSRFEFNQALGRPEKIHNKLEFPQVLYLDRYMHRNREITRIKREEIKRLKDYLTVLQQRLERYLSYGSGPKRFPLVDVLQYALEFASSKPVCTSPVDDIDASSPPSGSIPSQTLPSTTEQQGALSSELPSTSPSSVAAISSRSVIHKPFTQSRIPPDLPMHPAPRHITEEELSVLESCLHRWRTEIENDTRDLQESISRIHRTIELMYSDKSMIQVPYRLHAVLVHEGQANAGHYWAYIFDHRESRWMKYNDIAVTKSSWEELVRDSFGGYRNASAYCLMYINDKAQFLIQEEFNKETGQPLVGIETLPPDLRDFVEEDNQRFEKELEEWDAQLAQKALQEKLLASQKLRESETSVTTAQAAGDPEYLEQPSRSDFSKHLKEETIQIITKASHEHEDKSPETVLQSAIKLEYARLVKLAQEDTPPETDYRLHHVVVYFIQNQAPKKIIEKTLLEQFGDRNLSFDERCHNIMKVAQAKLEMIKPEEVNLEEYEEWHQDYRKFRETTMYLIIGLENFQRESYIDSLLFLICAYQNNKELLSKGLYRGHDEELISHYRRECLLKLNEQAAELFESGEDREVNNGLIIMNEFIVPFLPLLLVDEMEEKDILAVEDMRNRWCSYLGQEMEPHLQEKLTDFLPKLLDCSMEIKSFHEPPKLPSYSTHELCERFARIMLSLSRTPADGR
Test: Ubiquitin-Rhodamine 110 Assay for USP25 Activity, Example A-2
Assay type: biochemical
Settings: Ubiquitin-Rhodamine 110 assay, Example A-2; read-out: USP25 A-2 IC50 range
How it was run: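 Inhibition is quantified as IC50 by 4-parameter fit of fluorescence (485/535 nm) from Ub-Rh110 hydrolysis. Enzyme USP25-His6 at 75 pM with 30 min compound preincubation, then 25 nM substrate for 45 min at room temperature in pH 8.0 Tris buffer containing BME.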

Row | Structure (SMILES) | IC50
1 | CO[C@@H]1CN(c2cc3c(c(F)c2F)C[C@@H](NC(=O)c2sc4nc(C)ccc4c2N)CO3)C[C@H]1N [Example 415, 3-amino-N-[(3R)-7-[(3R,4R)-3-amino-4-methoxypyrrolidin-1-yl]-5,6-difluoro-3,4-dihydro-2H-1-benzopyran-3-yl]-6-methylthieno[2,3-b]pyridine-2-carboxamide] | 0.2 to 2 µM
2 | CO[C@H]1CN(c2cc3c(c(F)c2F)C[C@@H](NC(=O)c2sc4nc(C)ccc4c2N)CO3)C[C@@H]1N [Example 416, 3-amino-N-[(3R)-7-[(3S,4S)-3-amino-4-methoxpyrrolidin-1-yl]-5,6-difluoro-3,4-dihydro-2H-1-benzopyran-3-yl]-6-methylthieno[2,3-b]pyridine-2-carboxamide] | 0.2 to 2 µM
3 | Cc1ccc2c(N)c(C(=O)N[C@H]3CCc4cc(N5CCNCC5)c(F)c(F)c4C3)sc2n1 [Example 417, 3-amino-N-[(2S)-7,8-difluoro-6-(piperazin-1-yl)-1,2,3,4-tetrahydronaphthalen-2-yl]-6-methylthieno[2,3-b]pyridine-2-carboxamide] | > 2 µM
4 | Cc1ccc2c(N)c(C(=O)N[C@@H]3CCc4cc(N5CCNCC5)c(F)c(F)c4C3)sc2n1 [Example 418, 3-amino-N-[(2R)-7,8-difluoro-6-(piperazin-1-yl)-1,2,3,4-tetrahydronaphthalen-2-yl]-6-methylthieno[2,3-b]pyridine-2-carboxamide] | 0.2 to 2 µM
5 | Cc1cnc2c(N)c(C(=O)N[C@H]3CCc4cc(N5CC6CNCC(C5)O6)ccc4C3)sc2n1 [Example 448, N-((2S)-6-(9-oxa-3,7-diazabicyclo[3.3.1]nonan-3-yl)-1,2,3,4-tetrahydronaphthalen-2-yl)-7-amino-3-methylthieno[2,3-b]pyrazine-6-carboxamide] | 0.2 to 2 µM
6 | Cc1cnc2c(N)c(C(=O)N[C@@H]3CCc4cc(N5CC6CNCC(C5)O6)ccc4C3)sc2n1 [Example 450, N-((2R)-6-(9-oxa-3,7-diazabicyclo[3.3.1]nonan-3-yl)-1,2,3,4-tetrahydronaphthalen-2-yl)-7-amino-3-methylthieno[2,3-b]pyrazine-6-carboxamide] | > 2 µM
7 | Cc1ccc2c(N)c(C(=O)N[C@@H]3CCc4cc(N5CC6CNCC(C5)O6)ccc4C3)sc2n1 [Example 451, N-((2R)-6-(9-oxa-3,7-diazabicyclo[3.3.1]nonan-3-yl)-1,2,3,4-tetrahydronaphthalen-2-yl)-3-amino-6-methylthieno[2,3-b]pyridine-2-carboxamide] | 0.2 to 2 µM
8 | Cc1cnc2c(N)c(C(=O)N[C@@H]3CCc4cc(N5CCCNCC5)ccc4C3)sc2n1 [Example 452, (R)-N-(6-(1,4-diazepan-1-yl)-1,2,3,4-tetrahydronaphthalen-2-yl)-7-amino-3-methylthieno[2,3-b]pyrazine-6-carboxamide] | > 2 µM
9 | Cc1cnc2c(N)c(C(=O)N[C@H]3CCc4cc(N5CCCNCC5)ccc4C3)sc2n1 [Example 455, (S)-N-(6-(1,4-diazepan-1-yl)-1,2,3,4-tetrahydronaphthalen-2-yl)-7-amino-3-methylthieno[2,3-b]pyrazine-6-carboxamide] | 0.2 to 2 µM
10 | Cc1cnc2c(N)c(C(=O)N[C@H]3CCc4cc(N5CC6COCC(C5)N6)ccc4C3)sc2n1 [Example 456, N-((2S)-6-(3-oxa-7,9-diazabicyclo[3.3.1]nonan-7-yl)-1,2,3,4-tetrahydronaphthalen-2-yl)-7-amino-3-methylthieno[2,3-b]pyrazine-6-carboxamide] | > 2 µM
11 | Cc1cccc2c(C(=O)N[C@H]3COc4cc(N5CCNCC5)ccc4C3)cnn12 [Example 458, (R)-7-methyl-N-(7-(piperazin-1-yl)chroman-3-yl)pyrazolo[1,5-a]pyridine-3-carboxamide] | 0.2 to 2 µM
12 | CC(=O)N1CCCc2cc(C(=O)N[C@H]3COc4cc(N5CCNCC5)ccc4C3)ccc21 [Example 459, (R)-1-acetyl-N-(7-(piperazin-1-yl)chroman-3-yl)-1,2,3,4-tetrahydroquinoline-6-carboxamide] | > 2 µM
13 | O=C(N[C@H]1COc2cc(N3CCNCC3)ccc2C1)c1cnn2ccccc12 [Example 460, (R)-N-(7-(piperazin-1-yl)chroman-3-yl)pyrazolo[1,5-a]pyridine-3-carboxamide] | > 2 µM
14 | COc1ccn2ncc(C(=O)N[C@H]3COc4cc(N5CCNCC5)ccc4C3)c2c1 [Example 461, (R)-5-methoxy-N-(7-(piperazin-1-yl)chroman-3-yl)pyrazolo[1,5-a]pyridine-3-carboxamide] | > 2 µM
15 | O=C(N[C@H]1COc2cc(N3CCNCC3)ccc2C1)c1cnn2cc(Cl)ccc12 [Example 462, (R)-6-chloro-N-(7-(piperazin-1-yl)chroman-3-yl)pyrazolo[1,5-a]pyridine-3-carboxamide] | > 2 µM
16 | Cc1cc(C)n2ncc(C(=O)N[C@H]3COc4cc(N5CCNCC5)ccc4C3)c2n1 [Example 463, (R)-5,7-dimethyl-N-(7-(piperazin-1-yl)chroman-3-yl)pyrazolo[1,5-a]pyrimidine-3-carboxamide] | > 2 µM
17 | O=C(N[C@H]1COc2cc(N3CCNCC3)ccc2C1)c1cn2nc(Cl)ccc2n1 [Example 464, (R)-6-chloro-N-(7-(piperazin-1-yl)chroman-3-yl)imidazo[1,2-b]pyridazine-2-carboxamide] | > 2 µM
18 | Cc1ccn2ncc(C(=O)N[C@H]3COc4cc(N5CCNCC5)ccc4C3)c2c1 [Example 465, (R)-5-methyl-N-(7-(piperazin-1-yl)chroman-3-yl)pyrazolo[1,5-a]pyridine-3-carboxamide] | > 2 µM
19 | O=C(N[C@H]1COc2cc(N3CCNCC3)ccc2C1)c1cnn2cccnc12 [Example 466, (R)-N-(7-(piperazin-1-yl)chroman-3-yl)pyrazolo[1,5-a]pyrimidine-3-carboxamide] | > 2 µM
20 | O=C(N[C@H]1COc2cc(N3CCNCC3)ccc2C1)c1ccc(NCc2cccnc2)nc1 [Example 468, (R)-N-(7-(piperazin-1-yl)chroman-3-yl)-6-((pyridin-3-ylmethyl)amino)nicotinamide] | > 2 µM
21 | O=C(N[C@H]1COc2cc(N3CCNCC3)ccc2C1)c1ccc(NCc2cccc(C(F)(F)F)c2)nc1 [Example 469, (R)-N-(7-(piperazin-1-yl)chroman-3-yl)-6-((3-(trifluoromethyl)benzyl)amino)nicotinamide] | 0.05 to 0.2 µM
22 | O=C(N[C@H]1COc2cc(N3CCNCC3)ccc2C1)c1ccc(NCc2ccccn2)nc1 [Example 470, (R)-N-(7-(piperazin-1-yl)chroman-3-yl)-6-((pyridin-2-ylmethyl)amino)nicotinamide] | > 2 µM
23 | O=C(N[C@H]1COc2cc(N3CCNCC3)ccc2C1)c1ccc(NCc2ccc3c(c2)OCCO3)nc1 [Example 471, (R)-6-(((2,3-dihydrobenzo[b][1,4]dioxin-6-yl)methyl)amino)-N-(7-(piperazin-1-yl)chroman-3-yl)nicotinamide] | 0.2 to 2 µM
24 | O=C(N[C@H]1COc2cc(N3CCNCC3)ccc2C1)c1ccc(NCc2ccc3c(c2)CCO3)nc1 [Example 472, (R)-6-(((2,3-dihydrobenzofuran-5-yl)methyl)amino)-N-(7-(piperazin-1-yl)chroman-3-yl)nicotinamide] | 0.2 to 2 µM
25 | CC(=O)Nc1cccc(CNc2ccc(C(=O)N[C@H]3COc4cc(N5CCNCC5)ccc4C3)cn2)c1 [Example 473, (R)-6-((3-acetamidobenzyl)amino)-N-(7-(piperazin-1-yl)chroman-3-yl)nicotinamide] | > 2 µM
26 | CCc1cccc2c(C(=O)N[C@H]3COc4cc(N5CCNCC5)ccc4C3)cnn12 [Example 474, 7-ethyl-N-[(3R)-7-(piperazin-1-yl)-3,4-dihydro-2H-1-benzopyran-3-yl]pyrazolo[1,5-a]pyridine-3-carboxamide] | 0.2 to 2 µM
27 | O=C(N[C@H]1COc2cc(N3CCNCC3)ccc2C1)c1cnn2c(CO)cccc12 [Example 475, 7-(hydroxymethyl)-N-[(3R)-7-(piperazin-1-yl)-3,4-dihydro-2H-1-benzopyran-3-yl]pyrazolo[1,5-a]pyridine-3-carboxamide] | > 2 µM
